Test results taken from PubChem BioAssay (NCI).
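Interpolation was linear, between the two tested concentrations surrounding the appropriate level; five concentrations were tested over 48 hours in 96-well plates. TGI: concentration producing complete growth inhibition.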

Key:
Assay in all cases: growth of human tumour cells (NCI), 48 h
A498 renal = system: A498 renal
HS 578T breast = system: HS 578T breast
786-0 renal = system: 786-0 renal
HOP-62 NSCLC = system: HOP-62 NSCLC
NCI-H522 lung = system: NCI-H522 lung
MDA-MB-435 = system: MDA-MB-435
OVCAR-3 ovarian = system: OVCAR-3 ovarian
CCRF-CEM leukemia = system: CCRF-CEM leukemia
HCT-15 colon = system: HCT-15 colon
PC-3 prostate = system: PC-3 prostate
SK-OV-3 ovarian = system: SK-OV-3 ovarian
ACHN renal = system: ACHN renal
SF-539 CNS = system: SF-539 CNS
OVCAR-8 ovarian = system: OVCAR-8 ovarian
UACC-62 melanoma = system: UACC-62 melanoma
UACC-257 melanoma = system: UACC-257 melanoma
SF-268 CNS = system: SF-268 CNS
SNB-19 CNS = system: SNB-19 CNS
SN12C renal = system: SN12C renal
SK-MEL-5 melanoma = system: SK-MEL-5 melanoma
TK-10 renal = system: TK-10 renal
U251 CNS = system: U251 CNS
SR leukemia = system: SR leukemia
DU-145 prostate = system: DU-145 prostate
HOP-92 NSCLC = system: HOP-92 NSCLC
T-47D breast = system: T-47D breast
COLO 205 colon = system: COLO 205 colon
CAKI-1 renal = system: CAKI-1 renal
MDA-MB-231 breast = system: MDA-MB-231 breast
OVCAR-4 ovarian = system: OVCAR-4 ovarian
MDA-N = system: MDA-N
MOLT-4 leukemia = system: MOLT-4 leukemia
M14 melanoma = system: M14 melanoma
UO-31 renal = system: UO-31 renal
SNB-75 CNS = system: SNB-75 CNS
IGROV1 ovarian = system: IGROV1 ovarian
K-562 leukemia = system: K-562 leukemia
SF-295 CNS = system: SF-295 CNS
MCF7 breast = system: MCF7 breast
BT-549 breast = system: BT-549 breast
SW-620 colon = system: SW-620 colon
LOX IMVI melanoma = system: LOX IMVI melanoma
NCI-H460 lung = system: NCI-H460 lung
NCI/ADR-RES ovarian = system: NCI/ADR-RES ovarian
NCI-H226 lung = system: NCI-H226 lung
OVCAR-5 ovarian = system: OVCAR-5 ovarian
MALME-3M melanoma = system: MALME-3M melanoma
RXF 393 renal = system: RXF 393 renal
HL-60(TB) leukemia = system: HL-60(TB) leukemia
EKVX NSCLC = system: EKVX NSCLC
SK-MEL-2 melanoma = system: SK-MEL-2 melanoma
HCT-116 colon = system: HCT-116 colon
HT29 colon = system: HT29 colon
SK-MEL-28 melanoma = system: SK-MEL-28 melanoma
A549 NSCLC = system: A549 NSCLC
HCC-2998 colon = system: HCC-2998 colon
KM12 colon = system: KM12 colon
NCI-H23 lung = system: NCI-H23 lung

## CN(C)Cc1cc(N=Nc2ccc(Cl)cc2)ccc1O
A498 renal
  TGI: 31.8 µM
HS 578T breast
  TGI: 31.3 µM
786-0 renal
  TGI: 25.8 µM
HOP-62 NSCLC
  TGI: 21.7 µM
NCI-H522 lung
  TGI: 26.3 µM
MDA-MB-435
  TGI: 30.3 µM
OVCAR-3 ovarian
  TGI: 24.2 µM
CCRF-CEM leukemia
  TGI: 36.7 µM
HCT-15 colon
  TGI: 29.1 µM
PC-3 prostate
  TGI: 30.3 µM
SK-OV-3 ovarian
  TGI: 33.8 µM
ACHN renal
  TGI: 29.3 µM
SF-539 CNS
  TGI: 34.8 µM
OVCAR-8 ovarian
  TGI: 30.6 µM
UACC-62 melanoma
  TGI: 30.1 µM
UACC-257 melanoma
  TGI: 32.7 µM
SF-268 CNS
  TGI: 34.4 µM
SNB-19 CNS
  TGI: 34.1 µM
SN12C renal
  TGI: 33.1 µM
SK-MEL-5 melanoma
  TGI: 27.6 µM
TK-10 renal
  TGI: 28.4 µM
U251 CNS
  TGI: 31.1 µM
SR leukemia
  TGI: 39.8 µM
DU-145 prostate
  TGI: 48.1 µM
HOP-92 NSCLC
  TGI: 34.6 µM
T-47D breast
  TGI: 28.3 µM
COLO 205 colon
  TGI: 13.8 µM
CAKI-1 renal
  TGI: 32.2 µM
MDA-MB-231 breast
  TGI: 32.2 µM
OVCAR-4 ovarian
  TGI: 45.7 µM
MDA-N
  TGI: 42.9 µM
MOLT-4 leukemia
  TGI: 31.8 µM
M14 melanoma
  TGI: 53.1 µM
UO-31 renal
  TGI: 24.5 µM
SNB-75 CNS
  TGI: 28.8 µM
IGROV1 ovarian
  TGI: 32.3 µM
K-562 leukemia
  TGI: 35.2 µM
SF-295 CNS
  TGI: 30.9 µM
MCF7 breast
  TGI: 31.4 µM
BT-549 breast
  TGI: 26.8 µM
SW-620 colon
  TGI: 30.7 µM
LOX IMVI melanoma
  TGI: 23.5 µM
NCI-H460 lung
  TGI: 26.7 µM
NCI/ADR-RES ovarian
  TGI: 33.4 µM
NCI-H226 lung
  TGI: 30.3 µM
OVCAR-5 ovarian
  TGI: 26.3 µM
MALME-3M melanoma
  TGI: 27.2 µM
RXF 393 renal
  TGI: 27.9 µM
HL-60(TB) leukemia
  TGI: 32.1 µM
EKVX NSCLC
  TGI: 33.8 µM
SK-MEL-2 melanoma
  TGI: 38.1 µM
HCT-116 colon
  TGI: 31.2 µM
HT29 colon
  TGI: 26.4 µM
SK-MEL-28 melanoma
  TGI: 29.6 µM
A549 NSCLC
  TGI: 29.4 µM
HCC-2998 colon
  TGI: 28.6 µM
KM12 colon
  TGI: 34.5 µM
NCI-H23 lung
  TGI: 45.2 µM
